{
  "source": "patent US4514330A",
  "about": "“Carbon-7-substituted atinomycin D analogue” (Trustees of Boston University, priority 1983, dated 1985)",
  "key": {"DNA": {"tested_on": "DNA", "experiment": "Thermal denaturation of DNA (ΔTm), stabilization of DNA helical structure on drug binding", "parameters": "species or system calf thymus", "details": "for DNA melting profile / ΔTm character of the DNA complex: thermal denaturation, words", "procedure": "Thermal denaturation studies were carried out according to the procedure described in J. Med. Chem., Vol. 24, p. 1052 (1981). The ΔTm values in Table II give a measure of stabilization of DNA helical structure as a consequence of drug binding.\n^a ΔTm = m of DNAdrug complex minus m of DNA.\nConcentraiton of drug, 1.4 × 10^-4 M; of DNA (P), 1.4 ×\n10^-3 M in 0.01 M phosphate buffer (pH 7.0), 5 × 10^-3 M in\nEDTA and 5% dimethyl sulfoxide.\n^d Highest dose tested. These values are derived at high temperatur\n(67°-75° C.) and may not always correlate with the results\nof other DNA-binding studies (e.g., absorptiometric or circular dichroic).\nMelting points were obtained with a Thomas-Hoover melting point apparatus at a heating rate of 2° C./min. Column chromatography was accomplished with silica gel powder (Baker No. 3405, 60-20 mesh) or acid alumina (Woelm grade 1). Limited gel-filtration work was done on Sephadex LH-20, particle size 25-100 μm (Pharmacia Fine Chemicals). Thin-layer chromatography was performed on silica gel plates (E. M. Laboratories, Inc.). Solvent systems used were (A) butanol-formic acid-H2 O (75:13:12), (B) EtOAc-acetone (3:1), and (C) Cifferri, the organic phase of the mixture EtOAc-MeOH-H2 O (20:1:20). High-performance liquid chromatography was carried out on a Varian Model 5020 gradient liquid chromatograph equipped with CD-111L chromatography data system and fitted with Varian reversed-phase C18 column with isocratic solvent systems, CH3 -CN-5 mM NH4 OAc buffer, pH 6.4 (68:32 or 62:38), pressure 80-140 atm, flow rate 1.5 mL/min, with UV-visible variable and fixed wavelength dual detectors at 254 and 466 nm. Spectra were determined on the following instruments: IR spectra were obtained with a Perkin-Elmer Model 237 Infra Cord with KBr micropellets or chloroform solutions; UV-visible spectra were obtained on a Gilford 250 spectrophotometer, which, with the addition of a base-line reference compensator (Analog Multiplexer 6064) and thermoprogrammer, auto four cell programmer and thermoelectric cell holder 2577, was used to obtain thermal denaturation curves; NMR spectra were obtained on a JOEL FQ-90-90MHZ spectrometer equipped with Fourier transform; and CD spectra were obtained on a Cary 61 spectrophotometer. All elemental analyses were within ±0.4% of the theoretical values. Actinomycin D, batch no. NCS 3053, lot L554651-0-10, was provided by Natural Products Branch, National Cancer Institute, Silver Spring, Md. Calf thymus DNA type 1 was purchased from Sigma Chemical Co."}, "normal CDF1 male mice": {"tested_on": "normal CDF1 male mice", "experiment": "Maximum tolerated dose (LD10) in normal, tumor-free CDF1 male mice", "type": "in vivo", "details": "for MTD (maximum tolerated dose, lethal for 10% of normal mice; = LD10): deaths during 21 days; for MTD dose as multiple of the MTD dose for AMD: q4d 1, 5, 9 schedule; for fold less toxic than AMD: qd 1-4 schedule", "procedure": "^c MTD (maximum tolerated dose) is the lethal dose\n(milligrams/kilogram) for 10% normal CDF1 male mice (18-23 g);\nwere calculated from a plot of log dose vs. percent mortality. Average of\ntwo to three experiments.\nBiological Experiments. Determination of LD10 Values. Tumor-free CDF1 male mice weighing 18-23 g were given a broad range of doses of drugs in 10% dimethyl sulfoxide-saline on either days 1, 5 and 9 or on 4 successive days. Drugs were administered intraperitoneally (ip).\nThe maximum tolerated doses of AMD and analogues that caused deaths in only 10% of the tested animals in 21 days were recorded as MTD. The results are an average of two experiments in each. The MTD values obtained following schedules q4d 1, 5, 9 (three injections) and qd 1-4 (four injections) are recorded in Table IV. These doses are the same as LD10 (lethal dose of 10% of tumor-free animals in 21 days)."}, "[1]": {"experiment": "In vivo metabolic transformation and urinary excretion", "parameters": "species or system rat", "details": "metabolites as conjugates of 4b", "procedure": "The therapeutic indexes of both 3b and 4b in qd 1-4 and q4d 1, 5, 9 schedules of treatment are calculated and expressed in Table IV. […] These and other unidentified polar metabolites are excreted at about two to three times the rate of AMD in rat urine. This process of in vivo metabolic transformation and fast excretion appears to play a major role in reducing the in vivo toxicity factor of 3b and 4b."}, "calf thymus DNA": {"tested_on": "calf thymus DNA", "experiment": "DNA binding by visible absorption and CD spectra of DNA (P)-drug complex", "details": "mole ratio DNA (P)/analogue = 10:1; 3b, 4b and 5b compared; 1.0×10^-5 M, pH 7", "source_text": "In FIG. 1, absorption (top) and circular dichroism (bottom) spectra in 0.01 M phosphate buffer (pH7) containing EDTA (10^-5 M) and Me2 SO (5%): 3b (...), 4b (---), 5b (--). Concentration of drug in each case was 1.0×10^-5 M. In this respect, they are almost indistinguishable from the known analogue 7-methoxyactinomycin D (5b), whose structure and physical properties we have previously reported. The absorption spectra of all these analogues in aqueous buffer are also almost superimposable. […] The absorption spectrum of the analogues above 240 nm is mainly due to the electronic configuration of the tricyclic chromophore. The CD spectrum in the same wavelength region is an indicator of peptide conformation in actinomycin analogues, because it is the peptide lactone ring that confers optical activity on the nearly planar chromophore. The nature of the CD spectra (3b, 4b and 5b) asserts that in these analogues there is an identical relationship between the chromophores and peptide lactones. This relationship is very important, because during binding to DNA, AMD and some analogues are known to rely on the cooperative role between the chromophore and the peptide lactones for their highly specific DNA-binding property.\nAny change in the configurations of the peptide lactones on binding to DNA is generally expressed in the CD spectra of the analogue-DNA complexes. […] The changes in the visible absorption spectra of 3b, 4b and 5b and also their CD spectra observed after adding calf thymus DNA [mole ratio of DNA (P)/analogue=10:1] are identical (FIG. 2). In FIG. 2, the absorption (top) and CD spectra of the DNA (P)-drug complex (ratio 10:1). Concentrations, buffer and line types are as in FIG. 1."}, "[2]": {"details": "three injections ip, q4d 1, 5, 9"}},
  "data": [
    {"smiles": "Cc1c2oc3c(C)c(OCC4CO4)cc(C(=O)N[C@@H]4C(=O)N[C@H](C(C)C)C(=O)N5CCC[C@H]5C(=O)N(C)CC(=O)N(C)[C@@H](C(C)C)C(=O)O[C@@H]4C)c3nc-2c(C(=O)N[C@@H]2C(=O)N[C@H](C(C)C)C(=O)N3CCC[C@H]3C(=O)N(C)CC(=O)N(C)[C@@H](C(C)C)C(=O)O[C@@H]2C)c(N)c1=O", "note": "(stereo partly drawn) [Compound 3b, 7-(2,3-Epoxypropoxy)actinomycin D]", "values": [
      {"measurement": "DNA melting profile / ΔTm character of the DNA complex", "setting": "DNA", "result": "very broad"},
      {"measurement": "MTD (maximum tolerated dose, lethal for 10% of normal mice; = LD10)", "setting": "normal CDF1 male mice; four injections ip, qd 1-4", "result": 1.6, "unit": "milligrams/kilogram"},
      {"measurement": "MTD dose as multiple of the MTD dose for AMD", "setting": "normal CDF1 male mice", "result": 14, "unit": "fold"},
      {"measurement": "fold less toxic than AMD", "setting": "normal CDF1 male mice", "result": 11, "unit": "fold"},
      {"measurement": "MTD (maximum tolerated dose, lethal for 10% of normal mice; = LD10)", "setting": "normal CDF1 male mice; [2]", "result": 3.6, "unit": "milligrams/kilogram"},
      {"measurement": "in vivo metabolic transformation", "setting": "[1]", "result": "transformed in vivo to highly polar metabolites"},
      {"measurement": "changes in visible absorption and CD spectra after adding calf thymus DNA", "setting": "calf thymus DNA", "result": "identical"}
    ]},
    {"smiles": "Cc1c2oc3c(C)c(OCC(O)CO)cc(C(=O)N[C@@H]4C(=O)N[C@H](C(C)C)C(=O)N5CCC[C@H]5C(=O)N(C)CC(=O)N(C)[C@@H](C(C)C)C(=O)O[C@@H]4C)c3nc-2c(C(=O)N[C@@H]2C(=O)N[C@H](C(C)C)C(=O)N3CCC[C@H]3C(=O)N(C)CC(=O)N(C)[C@@H](C(C)C)C(=O)O[C@@H]2C)c(N)c1=O", "note": "(stereo partly drawn) [Compound 4b, 7-(2,3-Dihydroxypropoxy) actinomycin D]", "values": [
      {"measurement": "Tm (ΔTm = Tm of DNA-drug complex minus Tm of DNA)", "setting": "DNA; drug 1.4 × 10^-4 M, DNA (P) 1.4 × 10^-3 M, 0.01 M phosphate buffer pH 7.0, EDTA, 5% dimethyl sulfoxide", "result": "5.1 ± 0.15", "unit": "°C"},
      {"measurement": "DNA melting profile / ΔTm character of the DNA complex", "setting": "DNA", "result": "sharp and smooth"},
      {"measurement": "MTD (maximum tolerated dose, lethal for 10% of normal mice; = LD10)", "setting": "normal CDF1 male mice; four injections ip, qd 1-4", "result": 1.4, "unit": "milligrams/kilogram"},
      {"measurement": "MTD dose as multiple of the MTD dose for AMD", "setting": "normal CDF1 male mice", "result": 7, "unit": "fold"},
      {"measurement": "fold less toxic than AMD", "setting": "normal CDF1 male mice", "result": 9, "unit": "fold"},
      {"measurement": "MTD (maximum tolerated dose, lethal for 10% of normal mice; = LD10)", "setting": "normal CDF1 male mice; [2]", "result": 1.8, "unit": "milligrams/kilogram"},
      {"measurement": "in vivo metabolic transformation", "setting": "[1]", "result": "transformed in vivo to highly polar metabolites"},
      {"measurement": "changes in visible absorption and CD spectra after adding calf thymus DNA", "setting": "calf thymus DNA", "result": "identical"}
    ]}
  ]
}
